For this assay, the target named is T1, angiotensin converting enzyme (Oryctolagus cuniculus, UniProt P12822).
T1 sequence (P12822 34-1310): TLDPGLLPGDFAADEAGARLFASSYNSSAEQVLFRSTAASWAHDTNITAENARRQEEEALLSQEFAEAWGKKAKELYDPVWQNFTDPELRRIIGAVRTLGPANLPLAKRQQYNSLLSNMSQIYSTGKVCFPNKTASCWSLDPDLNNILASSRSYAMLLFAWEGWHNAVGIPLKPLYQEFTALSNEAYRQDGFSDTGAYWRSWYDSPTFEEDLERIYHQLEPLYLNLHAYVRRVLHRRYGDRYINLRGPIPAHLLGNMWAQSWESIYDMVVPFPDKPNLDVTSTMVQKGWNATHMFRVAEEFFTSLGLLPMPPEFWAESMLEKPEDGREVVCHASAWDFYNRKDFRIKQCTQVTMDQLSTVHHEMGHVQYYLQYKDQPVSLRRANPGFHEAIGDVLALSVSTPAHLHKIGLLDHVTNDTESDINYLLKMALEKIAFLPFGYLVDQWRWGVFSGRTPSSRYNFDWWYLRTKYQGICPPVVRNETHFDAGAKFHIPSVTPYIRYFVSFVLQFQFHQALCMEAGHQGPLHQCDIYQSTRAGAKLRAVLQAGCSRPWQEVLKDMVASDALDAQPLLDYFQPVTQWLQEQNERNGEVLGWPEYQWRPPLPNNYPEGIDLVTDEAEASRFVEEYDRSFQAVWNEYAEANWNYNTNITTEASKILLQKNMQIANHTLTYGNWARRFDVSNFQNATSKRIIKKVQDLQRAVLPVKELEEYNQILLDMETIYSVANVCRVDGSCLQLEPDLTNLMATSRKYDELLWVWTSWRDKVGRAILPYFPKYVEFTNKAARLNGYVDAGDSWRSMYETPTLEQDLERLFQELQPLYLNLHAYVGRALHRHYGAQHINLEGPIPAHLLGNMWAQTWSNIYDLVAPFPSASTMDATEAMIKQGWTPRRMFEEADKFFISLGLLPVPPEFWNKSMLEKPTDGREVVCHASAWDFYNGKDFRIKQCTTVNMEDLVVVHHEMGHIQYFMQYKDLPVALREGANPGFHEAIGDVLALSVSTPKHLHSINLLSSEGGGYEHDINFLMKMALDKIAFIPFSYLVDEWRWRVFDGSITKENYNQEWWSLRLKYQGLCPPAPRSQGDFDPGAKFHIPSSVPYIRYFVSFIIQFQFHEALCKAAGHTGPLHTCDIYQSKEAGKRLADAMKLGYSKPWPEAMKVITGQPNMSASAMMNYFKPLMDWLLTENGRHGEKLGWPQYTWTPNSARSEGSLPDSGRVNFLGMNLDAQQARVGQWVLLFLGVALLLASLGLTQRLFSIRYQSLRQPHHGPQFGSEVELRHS
The experiment in a line: in vitro inhibition of angiotensin converting enzyme (cleavage of hippuryl-histidyl-leucine). The format is biochemical. The note with it: hippuryl-histidyl-leucine 2 mM, potassium phosphate buffer pH 8.3, 100 mM, NaCl 300 mM, 24 minutes at 37° C., read-out: IC50 (concentration of test substance which reduces by 50% the cleavage of hippuryl-histidyl-leucine by angiotensin converting enzyme). The method, then: The activity of the present compounds in inhibiting angiotensin converting enzyme in vitro can be determined by the following test.
The method used is based on the method of Cushman and Cheung (Biochem. Pharmacol., 20. 1637-1648) incorporating the modifications introduced by Hayakari et al (Anal. Biochem., 84. 361-369). The substrate (hippuryl-histidyl-leucine, 2 mM) is incubated with angiotensin converting enzyme in the presence or absence of various concentrations of test substance in potassium phosphate buffer (pH 8.3; 100 mM) containing sodium chloride (300 mM) for 24 minutes at 37° C. (total value 500 μl). (If the test substance is an ester, it is appropriate to cleave it by means of hog liver esterase before carrying out the test). The reaction is terminated by the addition of 3 ml of potassium phosphate buffer (pH 8.3; 200 mM) at 0° C. 2,4,6-Trichloro-s-triazine (3%) in 1.5 ml of dioxane is added and the mixture is agitated until the yellow chromophore has developed fully. The samples are then centrifuged to remove any precipitate which has formed. The yellow chromophore formed by the reaction of the 2,4,6-trichloro-s-triazine with free hippuric acid is measured spectrophotometrically at 382 nm. IC50 values are defined as the concentration of test substance which reduces by 50% the cleavage of hippuryl-histidyl-leucine by angiotensin converting enzyme under the aforementioned conditions.
The results obtained in the foregoing test using representative compounds of formula I as the test substance are compiled in the following Table.

Experimental findings from US4512924A, “Pyridazo[1,2-a][1,2]diazepines” (Hoffmann-La Roche Inc., priority 1982, dated 1985) are described below.

With `O=C(O)C(CCCc1ccccc1)N[C@H]1CCC(=O)N2CCC[C@@H](C(=O)O)N2C1=O` (mixture of isomers) [Compound D, 9(S)-[1(R and S)-carboxy-4-phenylbutylamino]-octahydro-6,10-dioxo-6H-pyridazo[1,2-a][1,2]diazepine-1(S)-carboxylic acid], the IC50 was found to be 11 nM.

As to `O=C(O)C(Cc1ccccc1)N[C@H]1CCC(=O)N2CCC[C@@H](C(=O)O)N2C1=O` (mixture of isomers) [Compound E, 9(S)-[1(R and S)-carboxy-2-phenylethylamino]-octahydro-6,10-dioxo-6H-pyridazo[1,2-a][1,2]diazepine-1(S)-carboxylic acid], the IC50 came to 26 nM.

For the compound `CC(C)CCC(N[C@H]1CCC(=O)N2CCC[C@@H](C(=O)O)N2C1=O)C(=O)O` (mixture of isomers) [Compound F, 9(S)-[1(R and S)-carboxy-4-methylpentylamino]-octahydro-6,10-dioxo-6H-pyridazo[1,2-a][1,2]diazepine-1(S)-carboxylic acid], the IC50 is 12 nM.

On to `O=C(O)C(CCc1ccccc1)NC1CCN2CCCC(C(=O)O)N2C1=O` (racemic) [Compound C, 8-(1-Carboxy-3-phenylpropylamino)-octahydro-9-oxopyridazo[1,2-a]pyridazine-1-carboxylic acid], for which the IC50 stood at 55 nM.

For the compound `O=C(O)C(CCc1ccccc1)N[C@H]1CCC(=O)N2CCC[C@@H](C(=O)O)N2C1=O` (single isomer, unassigned) [Compound A], the IC50 is 4.2 nM.

Take `O=C(O)C(CCc1ccccc1)N[C@H]1CC(=O)N2CCCC(C(=O)O)N2C1=O` (single isomer, unassigned) [Compound B]: the IC50 worked out at 22 nM.
